Source: patent US20240197871A1, “COMBINATION OF A CAR T CELL THERAPY AND AN IMMUNOMODULATORY COMPOUND FOR TREATMENT OF LYMPHOMA” (Juno Therapeutics, Inc., priority 2021, published 2024)

Experiments:
anti-CD19 CAR T cells = experiment: Cell cycle phase (EdU incorporation) of stimulated anti-CD19 CAR T cells; type: cell-based, human; settings: for percentage of cells in G1 phase: P<0.001
Procedure: Anti-CD19 CAR-expressing T cell compositions were generated from three different healthy donors as described in Example 1. Prior to use, cryopreserved CD4+ and CD8+ engineered cell compositions were thawed and combined at approximately a 1:1 CD4:CD8 ratio.
Following incubation, stimulated CAR T cells were harvested, washed twice in media, and assessed.
The cell cycle phases of CAR T cells treated with the compounds during CAR-specific stimulation with the plate-bound anti-idiotypic antibody were determined using EDU incorporation for two hours after three days of stimulation. For EDU incorporation, CAR T cells were labeled using the Click-iT™ EdU Cell Proliferation Kit (Thermo Fisher Scientific), after which the prepared cells were analyzed by flow cytometry. […] Without wishing to be bound by theory, the accumulation of CAR T cells in G1 phase may account for one of the mechanisms by which the compounds can limit onset of exhaustion during chronic stimulation, as shown in Example 3 below.

RL CD19+ tumor cells = experiment: Cytolytic function: co-culture of anti-CD19 CAR T cells with RL CD19+ tumor cells; type: cell-based; settings: E:T 1:1
Procedure: To do so, CAR T cells were plated on ploy-D-lysine plates. CD19+ tumor cells transduced with IncuCyte® NucLight Red (Essen BioScience Inc.) were then added to the CAR T cells in addition to Compound C or vehicle control. Tumor cell number was measured over multiple days.
Treatment with CAR T cells in combination with either immunomodulatory compound led to lower tumor cell numbers than did CAR T cells alone or the compounds alone.

[1] = system: chronically stimulated anti-CD19 CAR T cells; experiment: RNA-seq gene expression of chronically stimulated CAR T cells; type: cell-based, human
Procedure: Five days after re-challenge, CAR T cells were sorted from tumor spheroids, and gene expression was analyzed by RNA sequencing (RNA-seq). Libraries for RNA-seq were sequenced, and reads were mapped to the Genome Reference Consortium Human Build 38 (GRCh38) human reference genome. Gene expression levels were quantified, and differential expression was performed using DESeq2. Gene expression was compared between chronically stimulated CAR T cells treated with Compound C during stimulation and untreated chronically stimulated CAR T cells, as well as between untreated chronically stimulated CAR T cells and non-stimulated CAR T cells. Differential expression was calculated based on treatment effects with 1 nM and 10 nM of the compounds. Differential locus selection cut offs were q≤0.05 and absolute log2 fold change ≥0.5.
Pathway analysis of CAR T RNA-seq data using the Kyoto Encyclopedia of Genes and Genomes (KEGG) was also performed using clusterProfiler. Pathways whose upregulation by chronic stimulation was prevented or reduced by treatment with Compound C are shown in FIG. 3J and include specific cell proliferation pathways. Gene ratios as shown in FIG. 3J were calculated as the percentage of significant genes over total genes in a given pathway.
Gene expression of chronically stimulated CAR T cells was also analyzed by RNA sequencing as in Example 3. […]

[2] = system: Granta-519 lymphoma tumor spheroids; experiment: Concentration levels: tumor cell number during re-challenge, concurrent or rescue treatment; type: cell-based
Procedure: Different concentrations of Compound C were tested for their effects on cytolytic function of CAR T cells following chronic stimulation. CAR T cells were treated with various concentrations of Compound C either during or after chronic stimulation.
Anti-CD19 CAR-expressing T cells, produced as described in Example 1, were chronically stimulated as described in Example 3 (with Compound C present during chronic stimulation), then re-challenged with Granta-519 lymphoma tumor spheroids in the absence of Compound C (concurrent treatment group). In addition, anti-CD19 CAR-expressing T cells were chronically stimulated as described in Example 4 (with Compound C absent during chronic stimulation), then re-challenged with Granta-519 lymphoma tumor spheroids in the presence of Compound C (rescue treatment group). During re-challenge, cytolytic activity was assessed by tumor cell number at various times during co-culture with CAR-T cells.
In both treatment conditions, tumor cell number was reduced compared to control conditions for CAR T cells treated with Compound C at a 0.001 μM concentration. Also in both treatment groups, tumor cell number was higher compared to control conditions for CAR T cells treated with Compound C at 0.01 μM and 0.1 μM concentrations.

[3] = system: CAR-expressing CD8 T cells; experiment: T cell memory markers CD27/CCR7 after chronic stimulation (flow cytometry); type: cell-based, human
Procedure: Similar results are shown in FIG. 7B for a separate experiment in which CAR T cells were chronically stimulated for 7 days in the presence or absence of Compound C. In this experiment, Compound C was present at (i) 50 nM for one day and 1 nM for the remaining six days of stimulation, (ii) 25 nM for one day and 0.5 nM for the remaining six days of stimulation, (iii) 10 nM for all seven days of stimulation, or (iv) 1 nM for all seven days of stimulation. Stimulated CAR T cells were then re-challenged with Raji lymphoma tumor spheroids in the absence of Compound C, after which cytolytic activity was assessed over a four-day period. […] The CAR T cells stimulated for seven days in the presence or absence of Compound C were also analyzed for phenotypic T cell memory markers using flow cytometry following chronic stimulation. […] CD27/CCR7 expression, which is a marker for less differentiated, naïve-like T cells, was highest in CAR-expressing CD8 T cells stimulated in the presence of Compound C at 50 nM for one day and 1 nM for the remaining six days of stimulation (* P<0.05).

In the case of `O=C1CC[C@H](N2C(=O)c3cccc(NCc4ccc(CN5CC(N6CCOCC6)C5)cc4F)c3C2=O)C(=O)N1` [Compound C, (S)-2-(2,6-dioxopiperidin-3-yl)-4-((2-fluoro-4-((3-morpholinoazetidin-1-yl)methyl)benzyl)amino)isoindoline-1,3-dione], the “dose with similar effects on percentage of cells in G1 phase, compared to the other compounds tested” value (anti-CD19 CAR T cells) is reported as “ten- or hundred-fold lower dose”, the “percentage of cells in G1 phase” value (anti-CD19 CAR T cells; 1 nM) is reported as “increased” and the “percentage of cells in G1 phase” value (anti-CD19 CAR T cells; 10 nM) is reported as “increased”. For the same compound, the “effect on percentage of cells in G1 phase compared with the other compounds” value (anti-CD19 CAR T cells; at all doses tested) was “most effect on the percentage of cells in G1 phase”, the “RL tumor cell number vs CAR T cells alone or compound alone” value (RL CD19+ tumor cells; compound at 0.001 μM with anti-CD19 CAR T cells) was “lower” and the “RL tumor cell number vs CAR T cells alone or compound alone” value (RL CD19+ tumor cells; compound at 0.01 μM with anti-CD19 CAR T cells) was “lower”. For the same compound, the “RL tumor cell number vs CAR T cells alone or compound alone” value (RL CD19+ tumor cells; compound at 0.1 μM with anti-CD19 CAR T cells) was “lower”, the “gene expression vs untreated chronically stimulated CAR T cells (RNA-seq)” value ([1]; treatment during chronic stimulation (concurrent), 1 nM and 10 nM) was “altered gene expression” and the “gene expression vs untreated chronically stimulated CAR T cells (RNA-seq)” value ([1]; treatment during re-challenge (rescue)) was “altered gene expression”. For the same compound, the “tumor cell number compared to control conditions” value ([2]; concurrent treatment, 0.001 μM) was “reduced”, the “tumor cell number compared to control conditions” value ([2]; concurrent treatment, 0.01 μM) was “higher” and the “tumor cell number compared to control conditions” value ([2]; concurrent treatment, 0.1 μM) was “higher”. For the same compound, the “tumor cell number compared to control conditions” value ([2]; rescue treatment, 0.001 μM) was “reduced”, the “tumor cell number compared to control conditions” value ([2]; rescue treatment, 0.01 μM) was “higher” and the “tumor cell number compared to control conditions” value ([2]; rescue treatment, 0.1 μM) was “higher”. For the same compound, the CD27/CCR7 expression ([3]; 50 nM for one day and 1 nM for the remaining six days of stimulation, P<0.05) was “highest” and the “percentage of CD27+/CCR7+ cells vs stimulation in the absence of compound” value ([3]; seven days of chronic stimulation in the presence of compound) was “higher percentages of CD27+/CCR7+ cells”.
